Assay in all cases: relative viability (nuclei count vs DMSO), 5 days (fraction); higher = more cells survive
Compound in test [1]: O=C(O)c1ccc2c(c1)nc(Nc1cccc(Cl)c1)c1ccncc12 [Silmitasertib] + CC(C)C[C@H](NC(=O)[C@H](Cc1ccccc1)NC(=O)c1cnccn1)B(O)O [Bortezomib] (partner 0.002 µM)
The method, boiled down:
(§1)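 Lung cancer cell lines, seeded in 1536-well plates, were treated the following day by pin tool with a single drug or with five library-drug doses (not always all listed) in √10 steps on top of a fixed anchor-drug dose. Cells were fixed and nuclei stained in one step after 5 days, and nuclei were counted. Relative viability is the nuclei count for treated wells divided by that for vehicle wells, reported as medians of duplicate plates.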

Compound in the test “Silmitasertib + OSI-027”: O=C(O)c1ccc2c(c1)nc(Nc1cccc(Cl)c1)c1ccncc12 [Silmitasertib] + COc1cccc2cc(-c3nc([C@H]4CC[C@H](C(=O)O)CC4)n4ncnc(N)c34)[nH]c12 [OSI-027] (partner 0.5 µM)
In short, it runs like this:
as §1

Compound in test [2]: O=C(O)c1ccc2c(c1)nc(Nc1cccc(Cl)c1)c1ccncc12 [Silmitasertib] + C[C@@H](Oc1cc(-c2cnn(C3CCNCC3)c2)cnc1N)c1c(Cl)ccc(F)c1Cl [Crizotinib] (partner 1 µM)
In short, it runs like this:
as §1

Compound in test [3]: O=C(O)c1ccc2c(c1)nc(Nc1cccc(Cl)c1)c1ccncc12 [Silmitasertib] + Nc1nc2[nH]cc(CCc3ccc(C(=O)N[C@@H](CCC(=O)O)C(=O)O)cc3)c2c(=O)[nH]1 [Pemetrexed] (partner 0.2 µM)
The method, boiled down:
as §1

Compound in test [4]: O=C(O)c1ccc2c(c1)nc(Nc1cccc(Cl)c1)c1ccncc12 [Silmitasertib] + Nc1ncn([C@H]2C[C@H](O)[C@@H](CO)O2)c(=O)n1 [Decitabine] (partner 2 µM)
The method, boiled down:
as §1

For the cell line NCI-H3122, the relative viability in test [1] (first compound 0.04 µM) amounted to 1.11; in test [1] (first compound 0.4 µM), 0.935; in test [1] (first compound 1.265 µM), 1.03; in test [1] (first compound 4 µM), 1.12; in the test with Silmitasertib + OSI-027 (first compound 0.04 µM) it was 0.993; with Silmitasertib + OSI-027 (first compound 0.4 µM), 0.888. The relative viability amounted to 0.972 with Silmitasertib + OSI-027 (first compound 1.265 µM); 0.826 with Silmitasertib + OSI-027 (first compound 4 µM); 0.305 in test [2] (first compound 0.04 µM); 0.262 in test [2] (first compound 0.4 µM); 0.256 in test [2] (first compound 1.265 µM); 0.262 in test [2] (first compound 4 µM). Moreover, the relative viability came to 0.203 in test [3] (first compound 0.04 µM); 0.189 in test [3] (first compound 0.4 µM); 0.185 in test [3] (first compound 1.265 µM); 0.194 in test [3] (first compound 4 µM); 0.514 in test [4] (first compound 0.04 µM); 0.337 in test [4] (first compound 0.4 µM). The relative viability is 0.416 in test [4] (first compound 1.265 µM) and 0.511 in test [4] (first compound 4 µM).
For PC-3 [JPC-3], the relative viability turned out to be 0.892 in test [1] (first compound 0.04 µM); 0.699 in test [1] (first compound 0.4 µM); 0.891 in test [1] (first compound 1.265 µM); 0.826 in test [1] (first compound 4 µM); 0.841 with Silmitasertib + OSI-027 (first compound 0.04 µM); 0.573 with Silmitasertib + OSI-027 (first compound 0.4 µM). For the same cell line, the relative viability in the test with Silmitasertib + OSI-027 (first compound 1.265 µM) was determined as 0.777; with Silmitasertib + OSI-027 (first compound 4 µM), 0.573; in test [2] (first compound 0.04 µM), 0.968; in test [2] (first compound 0.4 µM), 0.868; in test [2] (first compound 1.265 µM), 1.03; in test [2] (first compound 4 µM), 0.999. The relative viability in test [3] (first compound 0.04 µM) is 1.18; in test [3] (first compound 0.4 µM) it was 0.919; in test [3] (first compound 1.265 µM), 1.15; in test [3] (first compound 4 µM) it was 0.6; in test [4] (first compound 0.04 µM), 0.968; in test [4] (first compound 0.4 µM), 0.846. The relative viability in test [4] (first compound 1.265 µM) was 0.836; in test [4] (first compound 4 µM) it was 0.723.
For PC-14, the relative viability in test [1] (first compound 0.04 µM) is 0.946; in test [1] (first compound 0.4 µM), 0.788; in test [1] (first compound 1.265 µM), 0.871; in test [1] (first compound 4 µM) it was 0.819; with Silmitasertib + OSI-027 (first compound 0.04 µM) it was 1.03; with Silmitasertib + OSI-027 (first compound 0.4 µM), 0.537. Moreover, the relative viability turned out to be 0.706 with Silmitasertib + OSI-027 (first compound 1.265 µM); 0.46 in the test with Silmitasertib + OSI-027 (first compound 4 µM); 0.932 in test [2] (first compound 0.04 µM); 0.897 in test [2] (first compound 0.4 µM); 0.888 in test [2] (first compound 1.265 µM); 0.847 in test [2] (first compound 4 µM). Besides, the relative viability turned out to be 0.134 in test [3] (first compound 0.04 µM); 0.122 in test [3] (first compound 1.265 µM); 0.113 in test [3] (first compound 4 µM); 0.265 in test [4] (first compound 0.04 µM); 0.214 in test [4] (first compound 0.4 µM); 0.271 in test [4] (first compound 1.265 µM). In addition, in test [4] (first compound 4 µM), the relative viability was 0.192.
On to RERF-LC-KJ, for which the relative viability in test [1] (first compound 0.04 µM) was determined as 1.15; in test [1] (first compound 0.4 µM), 0.95; in test [1] (first compound 1.265 µM), 0.779; in test [1] (first compound 4 µM), 0.574; in the test with Silmitasertib + OSI-027 (first compound 0.04 µM), 0.627; in the test with Silmitasertib + OSI-027 (first compound 0.4 µM), 0.484. The relative viability in the test with Silmitasertib + OSI-027 (first compound 1.265 µM) is 0.41; with Silmitasertib + OSI-027 (first compound 4 µM), 0.373; in test [2] (first compound 0.04 µM), 0.77; in test [2] (first compound 0.4 µM), 0.817; in test [2] (first compound 1.265 µM), 0.736; in test [2] (first compound 4 µM), 0.711. Moreover, the relative viability in test [3] (first compound 0.04 µM) came to 0.488; in test [3] (first compound 0.4 µM), 0.445; in test [3] (first compound 1.265 µM), 0.439; in test [3] (first compound 4 µM), 0.342; in test [4] (first compound 0.04 µM), 0.766; in test [4] (first compound 0.4 µM), 0.627. In addition, the relative viability in test [4] (first compound 1.265 µM) was 0.455; in test [4] (first compound 4 µM), 0.344.
On to SK-LU-1, for which the relative viability came to 1.33 in test [1] (first compound 0.04 µM); 0.735 in test [1] (first compound 0.4 µM); 0.801 in test [1] (first compound 1.265 µM); 0.394 in test [1] (first compound 4 µM); 0.432 with Silmitasertib + OSI-027 (first compound 0.04 µM); 0.248 with Silmitasertib + OSI-027 (first compound 0.4 µM). Also, the relative viability was 0.223 with Silmitasertib + OSI-027 (first compound 1.265 µM); 0.197 with Silmitasertib + OSI-027 (first compound 4 µM); 1.2 in test [2] (first compound 0.04 µM); 0.714 in test [2] (first compound 0.4 µM); 0.502 in test [2] (first compound 1.265 µM); 0.315 in test [2] (first compound 4 µM). Moreover, the relative viability in test [3] (first compound 0.04 µM) was found to be 0.984; in test [3] (first compound 0.4 µM) it was 0.885; in test [3] (first compound 1.265 µM), 0.771; in test [3] (first compound 4 µM) it was 0.351; in test [4] (first compound 0.04 µM), 0.708; in test [4] (first compound 0.4 µM) it was 0.622. Further, the relative viability came out at 0.297 in test [4] (first compound 1.265 µM) and 0.428 in test [4] (first compound 4 µM).
SW 1573: the relative viability in test [1] (first compound 0.04 µM) turned out to be 1.09; in test [1] (first compound 0.4 µM), 1.15; in test [1] (first compound 1.265 µM), 1.02; in test [1] (first compound 4 µM) it was 0.977; with Silmitasertib + OSI-027 (first compound 0.04 µM), 0.648; with Silmitasertib + OSI-027 (first compound 0.4 µM) it was 0.616. In addition, the relative viability in the test with Silmitasertib + OSI-027 (first compound 1.265 µM) worked out at 0.548; with Silmitasertib + OSI-027 (first compound 4 µM) it was 0.319; in test [2] (first compound 0.04 µM) it was 0.952; in test [2] (first compound 0.4 µM), 0.707; in test [2] (first compound 1.265 µM) it was 0.734; in test [2] (first compound 4 µM) it was 0.625. The relative viability was found to be 1.11 in test [3] (first compound 0.04 µM); 0.875 in test [3] (first compound 0.4 µM); 0.89 in test [3] (first compound 1.265 µM); 0.697 in test [3] (first compound 4 µM); 0.515 in test [4] (first compound 0.04 µM); 0.406 in test [4] (first compound 0.4 µM). Further, the relative viability turned out to be 0.441 in test [4] (first compound 1.265 µM) and 0.372 in test [4] (first compound 4 µM).
As to UMC-11, the relative viability in test [1] (first compound 0.04 µM) was determined as 0.679; in test [1] (first compound 0.4 µM), 0.588; in test [1] (first compound 1.265 µM), 0.65; in test [1] (first compound 4 µM) it was 0.542; in the test with Silmitasertib + OSI-027 (first compound 0.04 µM), 0.491; with Silmitasertib + OSI-027 (first compound 0.4 µM), 0.485. For the same cell line, the relative viability in the test with Silmitasertib + OSI-027 (first compound 1.265 µM) turned out to be 0.438; with Silmitasertib + OSI-027 (first compound 4 µM) it was 0.402; in test [2] (first compound 0.04 µM), 0.604; in test [2] (first compound 0.4 µM), 0.683; in test [2] (first compound 1.265 µM), 0.56; in test [2] (first compound 4 µM) it was 0.324. Also, the relative viability turned out to be 0.951 in test [3] (first compound 0.04 µM); 0.785 in test [3] (first compound 0.4 µM); 0.774 in test [3] (first compound 1.265 µM); 0.553 in test [3] (first compound 4 µM); 0.688 in test [4] (first compound 0.04 µM); 0.464 in test [4] (first compound 0.4 µM). Moreover, the results for the relative viability in test [4] (first compound 1.265 µM) and in test [4] (first compound 4 µM) were 0.587 and 0.541, respectively.

The values above are taken from the supplement of paper PMC10307832.
